Data on one compound can be found in patent US20030175690A1 (priority 1999, published 2003).

The structures appear in SMILES notation.

This test deals with NL4-3 protease (Human immunodeficiency virus type 1 group M subtype B, UniProt P12497). The following applies: reference clone reconstructed with NL4-3 protease; HeLa cells; drug 0.1 μM; supernatant 48 hours after transfection.

Method: Positive colonies were grown in 5 mL LB medium, the plasmids extracted, and HeLa cells grown to 50% confluence on an 8-well plate (Costar), transfected by lipofectin (Bethesda Research Laboratories) in triplicate using pΔproΔRTΔenv (0.5 μg) containing the exogenous HIV-1 PR sequences. […] The degree of inhibition of viral expression was documented by the ratio between the levels of p24Ag detected in the presence and in the absence of the anti-viral compound (R=p24Ag^drug,/p24Ag^medium). The percent Sensitivity Index (SI%=100×R^reference/R^sample) was introduced to normalise differences due to cell related variables among different experiments. Proteases displaying SI% values greater than 80% were considered fully sensitive; partially sensitive (intermediate phenotype) between 80 and 60%; and resistant when lower than 60%.
The HIV-1 PR coding sequences amplified from the 13 culture supernatants or directly from the 6 plasma samples were cloned into the pΔproΔRTΔenv nonreplicative backbone, and the resulting plasmids were transfected into semiconfluent HeLa cells. After 48 hours of incubation the supernatants were assayed for HIV-1 p24Ag concentration.
This index was determined by normalising the R value of each clinical sample (R^sample) to that of the NL4-3 reference strain (R^reference) evaluated in parallel experiment, according to the function SI%=100×R^reference/R^sample.

With `CC(C)c1nc(CN(C)C(=O)N[C@H](C(=O)N[C@@H](Cc2ccccc2)C[C@H](O)[C@H](Cc2ccccc2)NC(=O)OCc2cncs2)C(C)C)cs1` [RTV, ritonavir], the “production of HIV-1 p24Ag by the reference clone in the presence of drug, compared with PI-free medium” value was “strongly inhibited”.
